The target of one assay is T1, human PDE5 (Homo sapiens, UniProt O76074).
T1 construct: from tissue; host or cells: human platelets from fresh donor blood (10,000 g supernatant of sonicated platelets)
Kind of assay: Inhibition of PDE5 activity (SPA, [3H]cGMP, platelet lysate). Conditions: PDE5 from human platelet lysate; values given as bins; read-out: PDE5A inhibitory values measured as −logIC50 (converted). In kind it is biochemical. The protocol:
As a source for human PDE5, platelets are used. For that purpose, 150 ml fresh blood from human donors anticoagulated with citrate [final concentration 0.3% (w/v)] is centrifuged at 200 g for 10 min to obtain the so-called platelet-rich-plasma (PRP) as a supernatant. 1/10 volume of ACD solution (85 mM Na3-citrate, 111 mM D-glucose, 71 mM citric acid, pH 4.4) is added to 9/10 volume of PRP. After centrifugation (1,400 g, 10 min) the cell pellet is resuspended in 3 ml homogenization buffer (NaCl 140 mM, KCl 3.8 mM, EGTA (ethylene glycol tetraacetic acid) 1 mM, MgCl2 1 mM, Tris-HCl 20 mM, beta-mercaptoethanol 1 mM, pH 8.2) plus protease-inhibitor mix giving rise to the final concentrations of 0.5 mM Pefablock (Roche), 10 μM Leupeptin, 5 μM Trypsininhibitor, 2 mM Benzamidin and 10 μM Pepstatin A. The suspension is sonified and thereafter centrifuged for 15 min at 10,000 g. The resulting supernatant (platelet lysate) is used for enzymatic testings.
PDE5 activities were measured in a 96-well platform using SPA (scintillation proximity assay) yttrium silicate beads (RPNQ1050 from GE Healthcare). In a first step the PDE activity operates hydrolysis of either [^3H] cGMP (substrate) into [^3H] 5′GMP. In a second step substrate and product are distinguished following addition of SPA yttrium silicate beads. Indeed, in the presence of zinc sulphate the linear [^3H] […] Close proximity of bound [^3H] […] The test volume is 100 pl and contains 20 mM Tris buffer (pH 7.4), 0.1 mg of BSA (bovine serum albumin)/ml, 5 mM Mg^2+, 1 μM motapizone (PDE3 Inhibitor), 10 nM PDE2 inhibitor 2-(3,4-dimethoxybenzyl)-7-[(1R,2R)-2-hydroxy-1-(2-phenylethyl)propyl]-5-methylimidazo[5,1-f][1,2,4]triazin-4(3H)-one, […] (cyclic guanosine monophosphate) (including about 50,000 cpm of [3H]cGMP as a tracer), 1 pl of the respective compound dilution in dimethylsulfoxide (DMSO) and sufficient PDE5-containing platelet lysat (10,000, g supernatant, see above) to ensure that 10-20 wt % of the cGMP is converted under the said experimental conditions. […] After a preincubation of 5 min at 37° C., the reaction is started by adding the substrate (cGMP) and the assay is incubated for a further 15 min; after that, it is stopped by adding SPA beads (50 pl). In accordance with the manufacturer's instructions, the SPA beads had previously been resuspended in water, but are then diluted 1:3 (v/v) in water; the diluted solution also contains 3 mM […]3-isobutyl-1-methylxanthine (IBMX) to ensure a complete PDE activity stop. After the beads have been sedimented (>30 min), the MTP's are analyzed in commercially available luminescence detection devices. The corresponding IC50 values of the compounds for the inhibition of PDE activity are determined from the concentration-effect curves by means of non-linear regression.

The target of the next assay is T2, PDE4B1 (Homo sapiens, UniProt Q07343).
T2 construct: made in house; host or cells: SF21 insect cells (baculovirus; pCR-Bac vector)
T2 sequence (Q07343 whole entry): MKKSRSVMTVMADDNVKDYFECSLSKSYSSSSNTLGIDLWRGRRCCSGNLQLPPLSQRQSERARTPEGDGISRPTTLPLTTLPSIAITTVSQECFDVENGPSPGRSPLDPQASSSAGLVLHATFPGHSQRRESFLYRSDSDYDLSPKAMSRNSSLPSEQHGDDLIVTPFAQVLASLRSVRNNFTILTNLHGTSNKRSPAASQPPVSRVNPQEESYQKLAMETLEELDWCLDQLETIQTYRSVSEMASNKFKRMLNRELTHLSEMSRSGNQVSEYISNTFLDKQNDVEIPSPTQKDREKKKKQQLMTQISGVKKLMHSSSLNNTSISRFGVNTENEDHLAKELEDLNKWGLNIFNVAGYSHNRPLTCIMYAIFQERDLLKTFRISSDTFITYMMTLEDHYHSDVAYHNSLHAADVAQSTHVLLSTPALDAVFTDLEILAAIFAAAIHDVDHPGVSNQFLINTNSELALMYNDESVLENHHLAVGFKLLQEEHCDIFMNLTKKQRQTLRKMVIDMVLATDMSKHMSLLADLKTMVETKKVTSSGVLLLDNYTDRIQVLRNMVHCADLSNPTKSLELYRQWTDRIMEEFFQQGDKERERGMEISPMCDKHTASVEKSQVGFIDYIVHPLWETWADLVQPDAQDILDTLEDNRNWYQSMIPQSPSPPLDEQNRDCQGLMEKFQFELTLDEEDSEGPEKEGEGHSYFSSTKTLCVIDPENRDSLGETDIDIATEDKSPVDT
Kind of assay: Inhibition of PDE4B1 activity (SPA, [3H]cAMP). It counts as biochemical. The settings on record: recombinant PDE4B1 expressed in SF21 cells; 0.5 pM [sic] cAMP; values given as bins; read-out: PDE4B1 inhibitory values measured as −logIC50 (converted). The protocol: The PDE4B1 (GB no. L20966) was a gift of Prof. M. Conti (Stanford University, USA). It was amplified from the original plasmid (pCMV5) via PCR with primers Rb18 (5′-[…]-3′) and Rb10 (5′-[…]-3′) and cloned into the pCR-Bac vector (Invitrogen, Groningen, NL).
The recombinant baculovirus was prepared by means of homologous recombination in SF9 insect cells. The expression plasmids were cotransfected with Baculo-Gold DNA (Pharmingen, Hamburg) using a standard protocol (Pharmingen, Hamburg). Wt virus-free recombinant virus supernatants were selected using plaque assay methods. After that, high-titre virus supernatants were prepared by amplifying 3 times. PDE4B1 was expressed in SF21 cells by infecting 2×10^6 cells/ml with an MOI (multiplicity of infection) between 1 and 10 in the serum-free medium Insect Express Sf9-S2 (PAA, Pasching, Austria). The cells were cultured at 28° C. for 48-72 hours, after which they were pelleted for 5-10 min at 1000×g and 4° C.
The SF21 insect cells were resuspended, at a concentration of approx. 10^7 cells/ml, in ice-cold (4° C.) homogenization buffer (20 mM Tris, pH 8.2, containing the following additions: 140 mM NaCl, 3.8 mM KCl, 1 mM EGTA, 1 mM MgCl2, 10 mM e-mercaptoethanol, 2 mM benzamidine, 0.4 mM Pefablock, 10 pM leupeptin, 10 pM pepstatin A, 5 pM trypsin inhibitor) and disrupted by ultrasonication. The homogenate was then centrifuged for 10 min at 1000, g and the supernatant was stored at −80° C. until subsequent use (see below). The protein content was determined by the Bradford method (BioRad, Munich) using BSA as the standard.
PDEB1 activities were measured in a 96-well platform using SPA (scintillation proximity assay) yttrium silicate beads (RPNQ1050 from GE Healthcare). In a first step the PDE activity operates hydrolysis of either [^3H] cAMP (substrate) into [^3H] 5′AMP. In a second step substrate and product are distinguished following addition of SPA yttrium silicate beads. Indeed, in the presence of zinc sulphate the linear [^3H] […] Close proximity of bound [^3H] […] The test volume is 100 pl and contains 20 mM Tris buffer (pH 7.4), 0.1 mg/ml of BSA, 5 mM Mg^2+, […] (including about 50,000 cpm of [3H]cAMP), 1 pl of the respective substance dilution in DMSO and sufficient recombinant PDE (1000, g supernatant, see above) to ensure that 10-20% of the cAMP is converted under the said experimental conditions. […] After a preincubation of 5 min at 37° C., the reaction is started by adding the substrate (cAMP) and the assays are incubated for a further 15 min; after that, they are stopped by adding SPA beads (50 pl). In accordance with the manufacturer's instructions, the SPA beads had previously been resuspended in water, but were then diluted 1:3 (v/v) in water; the diluted solution also contains 3 mM IBMX to ensure a complete PDE activity stop. After the beads have been sedimented (>30 min), the MTP's are analyzed in commercially available luminescence detection devices. The corresponding IC50 values of the compounds for the inhibition of PDE4B1 activity are determined from the concentration-effect curves by means of non-linear regression.

Where only a bound is given, the exact number is not on record here.

Consider nine compounds from patent US9018175B2 (Takeda GmbH, priority 2009, dated 2015).

Take `CCOc1cc2c(cc1OC)C(c1ccc(C(=O)N3CCC(n4c(=O)c5sc(-c6ccccc6)cc5n(Cc5nc(CC)co5)c4=O)CC3)cc1)=N[C@@H]1CCSC[C@H]21` [Example 5, 3-[1-({4-[(4aR,10bR)-9-ethoxy-8-methoxy-3,4,4a,10b-tetrahydro-1H-thiopyrano[4,3-c]isoquinolin-6-yl]phenyl}carbonyl)piperidin-4-yl]-1-[(4-ethyl-1,3-oxazol-2-yl)methyl]-6-phenylthieno[3,2-d]pyrimidine-2,4(1H,3H)-dione]: the results for the IC50 at human PDE5 and at PDE4B1 were 10 to 100 nM and 1 to 10 nM, respectively.
Consider `CCOc1cc2c(cc1OC)C(c1ccc(C(=O)N3CCC(n4c(=O)c5sc(-c6ccccc6)cc5n(Cc5sccc5C)c4=O)CC3)cc1)=N[C@@H]1CCSC[C@H]21` [Example 56, 3-[1-({4-[(4aR,10bR)-9-ethoxy-8-methoxy-3,4,4a,10b-tetrahydro-1H-thiopyrano[4,3-c]isoquinolin-6-yl]phenyl}carbonyl)piperidin-4-yl]-1-[(3-methylthiophen-2-yl)methyl]-6-phenylthieno[3,2-d]pyrimidine-2,4(1H,3H)-dione], for which the IC50 at human PDE5 is more than 100 nM; on PDE4B1 it was 1 to 10 nM.
As to `CCOc1cc2c(cc1OC)C(c1ccc(C(=O)N3CCC(n4c(=O)c5sc(-c6ccccc6)cc5n(Cc5ccc(CC)s5)c4=O)CC3)cc1)=N[C@@H]1CCSC[C@H]21` [Example 55, 3-[1-({4-[(4aR,10bR)-9-ethoxy-8-methoxy-3,4,4a,10b-tetrahydro-1H-thiopyrano[4,3-c]isoquinolin-6-yl]phenyl}carbonyl)piperidin-4-yl]-1-[(5-ethylthiophen-2-yl)methyl]-6-phenylthieno[3,2-d]pyrimidine-2,4(1H,3H)-dione], the results for the IC50 at human PDE5 and on PDE4B1 were 10 to 100 nM and 1 to 10 nM, respectively.
For `CCOc1cc2c(cc1OC)C(c1ccc(C(=O)N3CCC(n4c(=O)c5sc(-c6ccccc6)cc5n(Cc5nnn(CC)n5)c4=O)CC3)cc1)=N[C@@H]1CCS(=O)(=O)C[C@H]21` [Example 19, 3-[1-({4-[(4aR,10bR)-9-ethoxy-8-methoxy-2,2-dioxido-3,4,4a,10b-tetrahydro-1H-thiopyrano[4,3-c]isoquinolin-6-yl]phenyl}carbonyl)piperidin-4-yl]-1-[(2-ethyl-2H-tetrazol-5-yl)methyl]-6-phenylthieno[3,2-d]pyrimidine-2,4(1H,3H)-dione], the values for the IC50 on human PDE5 and on PDE4B1 were less than 10 nM and more than 10 nM, respectively.
In the case of `CCOc1cc2c(cc1OC)C(c1ccc(C(=O)N3CCC(n4c(=O)c5sc(-c6ccccc6)cc5n(Cc5ocnc5C)c4=O)CC3)cc1)=N[C@@H]1CCSC[C@H]21` [Example 54, 3-[1-({4-[(4aR,10bR)-9-ethoxy-8-methoxy-3,4,4a,10b-tetrahydro-1H-thiopyrano[4,3-c]isoquinolin-6-yl]phenyl}carbonyl)piperidin-4-yl]-1-[(4-methyl-1,3-oxazol-5-yl)methyl]-6-phenylthieno[3,2-d]pyrimidine-2,4(1H,3H)-dione], the values for the IC50 at human PDE5 and at PDE4B1 were more than 100 nM and less than 1 nM, respectively.
Regarding `CCOc1cc2c(cc1OC)C(c1cccc(C(=O)N3CCC(n4c(=O)c5sc(-c6ccccc6)cc5n(Cc5nnn(CC)n5)c4=O)CC3)c1)=N[C@@H]1CCSC[C@H]21` [Example 26, 3-[1-({3-[(4aR,10bR)-9-ethoxy-8-methoxy-3,4,4a,10b-tetrahydro-1H-thiopyrano[4,3-c]isoquinolin-6-yl]phenyl}carbonyl)piperidin-4-yl]-1-[(2-ethyl-2H-tetrazol-5-yl)methyl]-6-phenylthieno[3,2-d]pyrimidine-2,4(1H,3H)-dione], the IC50 at human PDE5 was less than 10 nM; on PDE4B1, more than 10 nM.
For `CCOc1cc2c(cc1OC)C(c1ccc(C(=O)N3CCC(n4c(=O)c5sc(-c6ccccc6)cc5n(Cc5cnn(CC)n5)c4=O)CC3)cc1)=N[C@@H]1CCSC[C@H]21` [Example 21, 3-[1-({4-[(4aR,10bR)-9-ethoxy-8-methoxy-3,4,4a,10b-tetrahydro-1H-thiopyrano[4,3-c]isoquinolin-6-yl]phenyl}carbonyl)piperidin-4-yl]-1-[(2-ethyl-2H-1,2,3-triazol-4-yl)methyl]-6-phenylthieno[3,2-d]pyrimidine-2,4(1H,3H)-dione] the same measures were 10 to 100 nM and 1 to 10 nM.
The like results for `CCOc1cc2c(cc1OC)C(c1ccc(C(=O)N3CCC(n4c(=O)c5sc(-c6ccccc6)cc5n(Cc5coc(CC)n5)c4=O)CC3)cc1)=N[C@@H]1CCSC[C@H]21` [Example 16, 3-[1-({4-[(4aR,10bR)-9-ethoxy-8-methoxy-3,4,4a,10b-tetrahydro-1H-thiopyrano[4,3-c]isoquinolin-6-yl]phenyl}carbonyl)piperidin-4-yl]-1-[(2-ethyl-1,3-oxazol-4-yl)methyl]-6-phenylthieno[3,2-d]pyrimidine-2,4(1H,3H)-dione] were, in that order, more than 100 nM and 1 to 10 nM.
Take `CCOc1cc2c(cc1OC)C(c1cccc(C(=O)N3CCC(n4c(=O)c5sc(-c6ccc7c(c6)OCO7)cc5n(Cc5nnn(CC)n5)c4=O)CC3)c1)=N[C@@H]1CCSC[C@H]21` [Example 31, 6-(1,3-benzodioxol-5-yl)-3-[1-({3-[(4aR,10bR)-9-ethoxy-8-methoxy-3,4,4a,10b-tetrahydro-1H-thiopyrano[4,3-c]isoquinolin-6-yl]phenyl}carbonyl)piperidin-4-yl]-1-[(2-ethyl-2H-tetrazol-5-yl)methyl]thieno[3,2-d]pyrimidine-2,4(1H,3H)-dione]: the IC50 on human PDE5 was less than 10 nM; at PDE4B1, more than 10 nM.
